From publication PMC5201331, “Subchronic Toxicities of HZ1006, a Hydroxamate-Based Histone Deacetylase Inhibitor, in Beagle Dogs and Sprague-Dawley Rats” (International Journal of Environmental Research and Public …, 2016)

Test system: Beagle dogs
Assay: Subchronic toxicity test in Beagle dogs: serum biochemistry
Format: in vivo
Conditions: dogs
Protocol: HZ1006 was administered orally to dogs (four/sex/group) at doses of 80, 40, 20, 5 and 0 (control) mg/kg/day, and the dosage volume was 2 mL/kg. The dogs received test doses with the exact amounts on a weekly basis based on current body weights. […] The other dogs in the above groups were dissected on the planned days. For the other groups, half of the dogs were anatomized on d28 and the remaining half on d42.
The following indexes were examined for the dogs used in the study, twice during the pre-dosage period and on d14, d28 and d42. The following parameters were evaluated on d28 and d42 for the rats in the study:
The animal blood samples were collected in the tubes containing the coagulator and centrifuged at 500 g for 10 min; the supernatant was then collected into a new tube. The serum biochemistry indexes included the following: alanine aminotransferase (ALT), alkaline phosphatase (ALP), aspartate aminotransferase (AST), blood urea (BU), lactate dehydrogenase (LDH), total bilirubin (TBIL), creatinine (Crea), albumin (ALB), total protein (TP), triglycerides (TG), total cholesterol (TCH), γ-glutamyltranspeptidase (g-GT), glucose (GLU), creatine phosphokinase (CPK), uric acid (UA), phosphorus (P), and calcium (Ca^2+). The above parameters were analyzed using an Automatic Analyzer 7080 provided by Hitachi High-Technologies Corp. (Tokyo, Japan). An Na/K/Cl Analyzer EasyLyte PLUS from Medica Corp. (Bedford, MA, USA), was used to determine the levels of chloride (Cl^−), sodium (Na^+) and potassium (K^+) in the blood samples.

[1] = 20 mg/kg/day oral, d42 (recovery)
[2] = 40 mg/kg/day oral, d0 (pre-dose)
[3] = 40 mg/kg/day oral, d42 (recovery)
[4] = 80 mg/kg/day oral, d0 (pre-dose)
[5] = 80 mg/kg/day oral, d42 (recovery)

Compound: CCCCCCCNc1cc(/C=C/C(=O)NO)ccc1OCCN(CC)CC [HZ1006]
- ALP: Alkaline phosphatase (20 mg/kg/day oral, d28): 0.98 ± 0.27 µmol/s/L
- ALT: Alanine aminotransferase (20 mg/kg/day oral, d28): 486 ± 90 nmol/s/L
- AST: Aspartate aminotransferase (20 mg/kg/day oral, d28): 408 ± 57 nmol/s/L
- BU: Blood urea (20 mg/kg/day oral, d28): 5.37 ± 1.78 mmol/L
- CPK: Creatine phosphokinase (20 mg/kg/day oral, d28): 2.38 ± 0.53 µmol/s/L
- CREA: Creatinine (20 mg/kg/day oral, d28): 52.1 ± 10.3 µmol/L
- LDH: Lactate dehydrogenase (20 mg/kg/day oral, d28): 1.54 ± 0.74 µmol/s/L
- TBIL: Total bilirubin (20 mg/kg/day oral, d28): 2.29 ± 0.31 µmol/L
- TCH: Total cholesterol (20 mg/kg/day oral, d28): 3.95 ± 0.55 mmol/L
- TG: Triglycerides (20 mg/kg/day oral, d28): 0.34 ± 0.05 mmol/L
- ALP: Alkaline phosphatase [1]: 1.00 ± 0.24 µmol/s/L
- ALT: Alanine aminotransferase [1]: 523 ± 148 nmol/s/L
- AST: Aspartate aminotransferase [1]: 412 ± 31 nmol/s/L
- BU: Blood urea [1]: 4.05 ± 0.37 mmol/L
- CPK: Creatine phosphokinase [1]: 2.17 ± 0.30 µmol/s/L
- CREA: Creatinine [1]: 49.6 ± 0.6 µmol/L
- LDH: Lactate dehydrogenase [1]: 2.28 ± 0.93 µmol/s/L
- TBIL: Total bilirubin [1]: 1.88 ± 0.19 µmol/L
- TCH: Total cholesterol [1]: 3.81 ± 0.18 mmol/L
- TG: Triglycerides [1]: 0.33 ± 0.12 mmol/L
- ALP: Alkaline phosphatase [2]: 1.62 ± 0.40 µmol/s/L
- ALT: Alanine aminotransferase [2]: 526 ± 179 nmol/s/L
- AST: Aspartate aminotransferase [2]: 462 ± 57 nmol/s/L
- BU: Blood urea [2]: 3.95 ± 0.48 mmol/L
- CPK: Creatine phosphokinase [2]: 3.27 ± 0.76 µmol/s/L
- CREA: Creatinine [2]: 49.2 ± 6.2 µmol/L
- LDH: Lactate dehydrogenase [2]: 3.39 ± 1.55 µmol/s/L
- TBIL: Total bilirubin [2]: 2.24 ± 0.24 µmol/L
- TCH: Total cholesterol [2]: 5.38 ± 1.95 mmol/L
- TG: Triglycerides [2]: 0.41 ± 0.10 mmol/L
- ALP: Alkaline phosphatase (40 mg/kg/day oral, d14): 1.03 ± 0.32 µmol/s/L
- ALT: Alanine aminotransferase (40 mg/kg/day oral, d14): 433 ± 304 nmol/s/L
- AST: Aspartate aminotransferase (40 mg/kg/day oral, d14): 313 ± 23 nmol/s/L
- BU: Blood urea (40 mg/kg/day oral, d14): 4.52 ± 1.05 mmol/L
- CPK: Creatine phosphokinase (40 mg/kg/day oral, d14): 2.36 ± 0.19 µmol/s/L
- CREA: Creatinine (40 mg/kg/day oral, d14): 52.5 ± 6.1 µmol/L
- LDH: Lactate dehydrogenase (40 mg/kg/day oral, d14): 1.29 ± 0.68 µmol/s/L
- TBIL: Total bilirubin (40 mg/kg/day oral, d14): 1.81 ± 0.24 µmol/L
- TCH: Total cholesterol (40 mg/kg/day oral, d14): 4.47 ± 0.71 mmol/L
- TG: Triglycerides (40 mg/kg/day oral, d14): 0.41 ± 0.12 mmol/L
- ALP: Alkaline phosphatase (40 mg/kg/day oral, d28): 1.30 ± 0.24 µmol/s/L
- ALT: Alanine aminotransferase (40 mg/kg/day oral, d28): 347 ± 78 nmol/s/L
- AST: Aspartate aminotransferase (40 mg/kg/day oral, d28): 378 ± 71 nmol/s/L
- BU: Blood urea (40 mg/kg/day oral, d28): 4.66 ± 0.96 mmol/L
- CPK: Creatine phosphokinase (40 mg/kg/day oral, d28): 3.00 ± 0.94 µmol/s/L
- CREA: Creatinine (40 mg/kg/day oral, d28): 52.6 ± 9.8 µmol/L
- LDH: Lactate dehydrogenase (40 mg/kg/day oral, d28): 2.76 ± 2.49 µmol/s/L
- TBIL: Total bilirubin (40 mg/kg/day oral, d28): 2.04 ± 0.43 µmol/L
- TCH: Total cholesterol (40 mg/kg/day oral, d28): 4.66 ± 1.85 mmol/L
- TG: Triglycerides (40 mg/kg/day oral, d28): 0.43 ± 0.18 mmol/L
- ALP: Alkaline phosphatase [3]: 1.34 ± 0.34 µmol/s/L
- ALT: Alanine aminotransferase [3]: 514 ± 112 nmol/s/L
- AST: Aspartate aminotransferase [3]: 468 ± 80 nmol/s/L
- BU: Blood urea [3]: 4.87 ± 1.56 mmol/L
- CPK: Creatine phosphokinase [3]: 3.00 ± 1.32 µmol/s/L
- CREA: Creatinine [3]: 58.8 ± 2.0 µmol/L
- LDH: Lactate dehydrogenase [3]: 3.50 ± 2.49 µmol/s/L
- TBIL: Total bilirubin [3]: 1.88 ± 0.08 µmol/L
- TCH: Total cholesterol [3]: 4.55 ± 1.10 mmol/L
- TG: Triglycerides [3]: 0.45 ± 0.04 mmol/L
- ALP: Alkaline phosphatase [4]: 1.62 ± 0.49 µmol/s/L
- ALT: Alanine aminotransferase [4]: 591 ± 143 nmol/s/L
- AST: Aspartate aminotransferase [4]: 493 ± 103 nmol/s/L
- BU: Blood urea [4]: 4.38 ± 0.72 mmol/L
- CPK: Creatine phosphokinase [4]: 3.24 ± 0.77 µmol/s/L
- CREA: Creatinine [4]: 53.4 ± 5.2 µmol/L
- LDH: Lactate dehydrogenase [4]: 2.71 ± 0.97 µmol/s/L
- TBIL: Total bilirubin [4]: 2.64 ± 0.41 µmol/L
- TCH: Total cholesterol [4]: 4.03 ± 1.04 mmol/L
- TG: Triglycerides [4]: 0.38 ± 0.15 mmol/L
- ALP: Alkaline phosphatase (80 mg/kg/day oral, d14): 1.27 ± 1.15 µmol/s/L
- ALT: Alanine aminotransferase (80 mg/kg/day oral, d14): 312 ± 38 nmol/s/L
- AST: Aspartate aminotransferase (80 mg/kg/day oral, d14): 386 ± 104 nmol/s/L
- BU: Blood urea (80 mg/kg/day oral, d14): 4.66 ± 0.93 mmol/L
- CPK: Creatine phosphokinase (80 mg/kg/day oral, d14): 3.29 ± 1.86 µmol/s/L
- CREA: Creatinine (80 mg/kg/day oral, d14): 58.2 ± 4.8 µmol/L
- LDH: Lactate dehydrogenase (80 mg/kg/day oral, d14): 1.76 ± 1.85 µmol/s/L
- TBIL: Total bilirubin (80 mg/kg/day oral, d14): 2.74 ± 2.93 µmol/L
- TCH: Total cholesterol (80 mg/kg/day oral, d14): 4.62 ± 2.51 mmol/L
- TG: Triglycerides (80 mg/kg/day oral, d14): 0.56 ± 0.28 mmol/L
- ALP: Alkaline phosphatase (80 mg/kg/day oral, d28): 1.01 ± 0.27 µmol/s/L
- ALT: Alanine aminotransferase (80 mg/kg/day oral, d28): 307 ± 51 nmol/s/L
- AST: Aspartate aminotransferase (80 mg/kg/day oral, d28): 310 ± 59 nmol/s/L
- BU: Blood urea (80 mg/kg/day oral, d28): 5.25 ± 1.21 mmol/L
- CPK: Creatine phosphokinase (80 mg/kg/day oral, d28): 1.73 ± 0.24 µmol/s/L
- CREA: Creatinine (80 mg/kg/day oral, d28): 54.3 ± 8.9 µmol/L
- LDH: Lactate dehydrogenase (80 mg/kg/day oral, d28): 0.97 ± 0.30 µmol/s/L
- TBIL: Total bilirubin (80 mg/kg/day oral, d28): 2.19 ± 0.20 µmol/L
- TCH: Total cholesterol (80 mg/kg/day oral, d28): 4.16 ± 1.39 mmol/L
- TG: Triglycerides (80 mg/kg/day oral, d28): 0.45 ± 0.11 mmol/L
- ALP: Alkaline phosphatase [5]: 0.99 ± 0.14 µmol/s/L
- ALT: Alanine aminotransferase [5]: 549 ± 181 nmol/s/L
- AST: Aspartate aminotransferase [5]: 460 ± 83 nmol/s/L
- BU: Blood urea [5]: 4.93 ± 0.50 mmol/L
- CPK: Creatine phosphokinase [5]: 2.86 ± 0.53 µmol/s/L
- CREA: Creatinine [5]: 65.9 ± 11.3 µmol/L
- TBIL: Total bilirubin [5]: 1.90 ± 0.23 µmol/L
- TCH: Total cholesterol [5]: 3.52 ± 0.84 mmol/L
- TG: Triglycerides [5]: 0.40 ± 0.14 mmol/L
